Where two headings read alike, the source gives them in different places.
Columns and labels:
[1] = Microsomal stability, human liver microsomes; format: in vitro ADME; details: both sexes, pH 7.4, 0.5 mg/mL microsomes, NADPH
Experimental: Pooled mixed gender human liver microsomes (HLMs) and Pooled CD1 mouse liver microsomes (female) were purchased from Tebubio. The NADPH regenerating system was purchased from Promega. All other reagents and solvents were of special or analytical grade and were commercially available. The assays were performed according to a reported protocol with small changes. […] The reactions were initiated by adding liver microsomes at a final concentration of 0.5 mg/mL in a total volume of 250 μL. […] The supernatants were analyzed with LC/MS for the amount of parent compound remaining, and the CLint and t 1/2 were determined.

[2] = target: T1, recombinant TAO (ΔMTS rTAO) (Trypanosoma brucei brucei, UniProt Q26710); assay: Inhibition of ubiquinol oxidase activity of purified recombinant TAO; format: biochemical, T. brucei
T1 construct: […]; SUMO (Small Ubiquitin-related Modifier) fusion from the expression system; made in house
T1 sequence (Q26710 26-329, stated change not applied): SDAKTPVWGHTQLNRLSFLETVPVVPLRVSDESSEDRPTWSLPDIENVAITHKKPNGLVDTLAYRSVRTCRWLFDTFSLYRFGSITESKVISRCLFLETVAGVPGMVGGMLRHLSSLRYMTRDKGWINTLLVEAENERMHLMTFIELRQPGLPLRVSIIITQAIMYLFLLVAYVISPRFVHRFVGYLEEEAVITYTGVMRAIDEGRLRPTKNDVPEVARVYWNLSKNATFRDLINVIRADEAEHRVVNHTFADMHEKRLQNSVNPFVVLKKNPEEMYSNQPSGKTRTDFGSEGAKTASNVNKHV
Experimental: This physiologically relevant rTAO enzyme was used throughout this work and in this experiment to study the inhibitory activity of 1.
As previously described, the Ubiquinol oxidase activity measurement was carried out using recombinant TAO lacking the mitochondrial targeting signal (ΔMTS). […] The reaction was carried out in a 1 cm cuvette for 2 min using a V-630 Jasco UV–vis spectrophotometer (Jasco Corporation, Tokyo, Japan). Briefly, the procedure involves preincubating 250 ng of the enzyme for 2 min in a 50 mM Tris-HCl (pH 7.3) buffer containing the detergent octaethylene glycol monododecylether (0.05% (w/v)) in a total reaction volume of 1 mL at 25 °C. […] For the inhibition reaction, 250 ng of the enzyme was preincubated with varying inhibitor concentrations for 2 min using the same buffer before the substrate was added. […] This was achieved using the same protocol but without TAO. […] The residual activities were plotted against the corresponding inhibitor concentration in a GraphPad Prism-9 software to obtain the IC50 value.

[3] = tested on: T. b. brucei WT (s427) trypomastigotes; assay: microbe, parasite or virus in culture; format: cell-based; details: Trypanosoma brucei
Experimental: (§1) Other Trypanosoma species used in this study include T. evansi AntTat 3/3 (Wild-type); and T. equiperdum BoTat 1 (Bordeaux trypanozoon antigenic type 1) P (wild-type). All the trypanosomes were used only as bloodstream trypomastigotes and cultured in the standard Hirumi’s Modified Iscove’s medium #9 (HMI-9), supplemented with 10% heat-inactivated Fetal Bovine Serum (FBS), 14 μL/L β-mercaptoethanol, and 3.0 g sodium hydrogen carbonate per liter of medium (pH 7.4). Trypanosomes were cultured in vented flasks at 37 °C in a 5% CO2 atmosphere.
(§2) Briefly, this protocol involves preparing a 96-well cell culture plate with a 100 μL serially diluted test compound (200 μM top concentration) in HMI-9 + 10% FBS (24 wells per control drug or test compound, with the 24th well serving as drug-free). This is followed by adjusting the cell density of mid-log-phase trypanosome cultures to the required concentration of 2 × 10^5 cells/mL (2 × 10^4 cells/well). […] All incubations were carried out at 37 °C with 5% CO2. […] EC50 values were calculated using GraphPad Prism 9.0 software via nonlinear regression with an equation for a sigmoidal dose–response curve with variable slope (GraphPad Software Inc., San Diego, CA, USA).

Stability in PBS buffer = details: 37 °C
T. brucei = assay: DNA configuration by fluorescence microscopy after DAPI staining; format: cell-based; details: 2 × EC50, by 24 h
Text: To assess the cause of the apparent 24-h growth arrest visualized in Figure , we assessed the cellular DNA content by flow cytometry of fixed trypanosomes stained with the nucleic acid dye propidium iodide after RNase treatment. […] This indicates an inability to initiate new synthesis of nuclear DNA, while cells that already past that checkpoint were able to complete cell division. […] In T. brucei, the first phase of the cell cycle is the replication of the kinetoplast, before the subsequent duplication of the nucleus. Thus, at the start of the experiment (t = 0 h) an equal percentage of cells in the “compound 1” and “untreated control” cultures contained a single nucleus and kinetoplast (1N1K) or were in the initial stages of cell division with 2 kinetoplasts (1N2K) (Figure B). […] These observations strengthen our conclusion that treatment with 1 stops the initiation of a new cell division cycle, and specifically the replication of the kinetoplast that must precede nuclear DNA synthesis in trypanosomes. […]
The configuration of nuclei and kinetoplast DNA of treated and untreated T. brucei was visualized using a Vectashield mounting medium with the dye 4,6-diamidino-2-phenylindole (DAPI) (Vector Lab. CA, USA), as described. […] At least 500 cells were scored per slide for the number of kinetoplasts (K) and nuclei (N) as 1N1K, 1N2K, 2N2K, or other.

T. equiperdum WT = assay: Resazurin-based drug sensitivity assay, T. equiperdum WT; format: cell-based; details: Trypanosoma equiperdum
Experimental: as §1, §2

T. congolense WT = assay: Drug sensitivity assay, T. congolense WT bloodstream forms; format: cell-based; details: Trypanosoma congolense
Experimental: The susceptibilities of trypanosomes to compound 1 were determined as previously described using the resazurin (Alamar Blue) assay. Briefly, this protocol involves preparing a 96-well cell culture plate with a 100 μL serially diluted test compound (200 μM top concentration) in HMI-9 + 10% FBS (24 wells per control drug or test compound, with the 24th well serving as drug-free). This is followed by adjusting the cell density of mid-log-phase trypanosome cultures to the required concentration of 2 × 10^5 cells/mL (2 × 10^4 cells/well). Then, 100 μL of the adjusted cell density/culture was added to all 24 wells in the plate, then incubating trypanosomes and test compound for 48 h followed by the addition of 20 μL filter-sterilized resazurin solution prepared by adding 25 mg resazurin sodium salt to 200 mL filter-sterilized PBS. This was followed by a further 24 h of incubation. All incubations were carried out at 37 °C with 5% CO2. […] Fluorescence was measured in the 96-well plates with a FLUOstar Optima (BMG Labtech, Durham, NC, USA) at wavelengths of 544 nm for excitation, 590 for emission, and a gain of 1250. EC50 values were calculated using GraphPad Prism 9.0 software via nonlinear regression with an equation for a sigmoidal dose–response curve with variable slope (GraphPad Software Inc., San Diego, CA, USA).

Structure (SMILES): Cc1cc(O)ccc1C(=O)OCCCCCCCCCCCCCC[P+](c1ccccc1)(c1ccccc1)c1ccccn1.[Br-] [Compound 1, {14-[(4-Hydroxy-2-methylbenzoyl)-oxy]-tetradecyl}-diphenyl(pyridin-2-yl)-Phosphonium Bromide]
- microsomal CLint at 1 μM ([1]; read-out: CLint,met in human microsomes): 216 ± 2.3 µL/min/mg
- half-life at 1 μM ([1]; read-out: t1/2 in human microsomes): 6.2 min
- IC50 [2]: 1.3 ± 0.07 nM
- EC50 ([3]; read-out: T. b. brucei WT (+5 mM glycerol) EC50, incubated in the presence of 5 mM glycerol): 1.4 ± 0.5 nM
- EC50 ([3]; s427, no glycerol, n ≥ 4, read-out: T. b. brucei WT (no glycerol) EC50): 3.1 ± 0.6 nM
- Stability in PBS buffer (Stability in PBS buffer): ≥ 1 h
- Percentage of 1N1K cells (T. brucei): 100%
- EC50 (T. equiperdum WT): 2.2 ± 0.2 nM
- EC50 (T. congolense WT): 41 ± 7 nM

Source: publication PMC12406258, “Uncovering the Unusual Inhibition Mechanism of a Trypanosome Alternative Oxidase Inhibitor Displaying Broad-Spectrum Activity against African Animal Trypanosomes” (Journal of Medicinal Chemistry, 2025)
